Measurements reported in publication PMC11641365, “Evaluation of In Vitro Biological Activity of Flavanone/Chromanone Derivatives: Molecular Analysis of Anticancer Mechanisms in Colorectal Cancer” (International Journal of Molecular Sciences, 2024).

Key:
Assay type in all cases: cell-based, human
Caco-2 [1] = experiment: Mitochondrial membrane potential (ΔΨm), JC-1 probe; details: compound at IC50, vs control
Excerpt: (§1) Changes in mitochondrial potential in cancer cells exposed to the tested derivatives were monitored using the fluorescent probe JC-1. In non-apoptotic cells, JC-1 aggregates emit red-orange fluorescence. During changes in mitochondrial membrane potential, such as those associated with the initiation of PCD stages (both hyperpolarization and depolarization of mitochondrial membranes), JC-1 is converted to monomers, emitting green fluorescence.
(§2) 5,5,6,6-Tetrachloro-1,1,3,3-tetraethylbenzimidazolylcarbocyanine iodide (JC-1) is one of the most reliable fluorescent probes used to assess changes in mitochondrial membrane potential (ΔΨ). In living cells with intact mitochondrial membranes, the lipophilic, cationic dye JC-1 penetrates the negatively charged mitochondrial matrix as a monomer, where it forms fluorescent aggregates with red-orange fluorescence (λex = 514 nm, λem = 590). […] The fluorescence ratio of aggregates (λem = 590 nm) and monomers (λem = 529 nm)—590 nm/529 nm—reflects the level of damage to the mitochondrial membrane.
(§3) Cells were seeded in black 96-well fluorometric microplates at a density of 10 × 10^3 cells/mL. […] Following treatment, the medium was removed, and the cell monolayers were washed twice with HBSS (140 mM NaCl, 5 mM KCl, 0.8 mM MgCl2, 1.8 mM CaCl2, 1 mM Na2HPO4, 10 mM HEPES, and 1% glucose). Then, 50 μL of a JC-1 solution in HBSS was added to each well, and the cells were incubated for 30 min in the dark at 37 °C (final JC-1 concentration 5 μM). After removing the fluorescent dye and replacing it with fresh HBSS, fluorescence measurements were taken using a Perkin-Elmer LS-5B spectrofluorometer (Perkin-Elmer LS-5B spectrofluorometer, Waltham, MA, USA). The excitation and emission wavelengths for JC-1 monomers were 514 nm and 529 nm, respectively, while for aggregates, they were 514 nm and 590 nm. The results were expressed as a percentage change in the fluorescence ratio of JC-1 aggregates to JC-1 monomers compared to the control, which was set at 100%.

HCT 116 [2] = experiment: Mitochondrial membrane potential (ΔΨm), JC-1 probe; details: compound at IC50, vs control
Excerpt: as §1, §2, §3

LoVo = experiment: Mitochondrial membrane potential (ΔΨm), JC-1 probe; details: compound at IC50, vs control
Excerpt: as §1, §2, §3

Caco-2 [3] = experiment: Superoxide anion level, DHE probe; details: compound at IC50, 24 h, vs control
Description: (§4) Superoxide anion (O2^•−) levels were quantified using a microplate spectrofluorometric assay with dihydroethidium (DHE) (Life Technologies, Carlsbad, CA, USA). DHE is a well-established fluorogenic probe for intracellular superoxide detection. […] The reaction between superoxide and DHE produces a highly specific red fluorescent product, 2-hydroxyethidium (2-OH-E ^+).
(§5) Cells were seeded in black 96-well fluorometric microplates at a density of 10 × 10^3 cells/mL. […] Following compound incubation, the medium was removed, and the cell monolayers were washed twice with HBSS (140 mM NaCl, 5 mM KCl, 0.8 mM MgCl2, 1.8 mM CaCl2, 1 mM Na2HPO4, 10 mM HEPES, and 1% glucose). A volume of 50 µL of DHE solution in HBSS (final concentration 5 μM) was added to each well, and the cells were incubated for 30 min in the dark at 37 °C. After incubation with the DHE, fluorescence measurements were conducted using a Perkin-Elmer LS-5B spectrofluorometer (Waltham, MA, USA) at the following excitation and fluorescence emission wavelengths: λex = 498 nm/λem = 582 nm. The fluorescence intensity of control cells was arbitrarily assigned a value of 100%. The results were expressed as percentages of control, calculated by comparing the fluorescence intensity ratio of the test samples to controls (100%). The fluorescence of samples was denoted as Δf in relation to the control.

HCT 116 [4] = experiment: Superoxide anion level, DHE probe; details: compound at IC50, 24 h, vs control
Description: as §4, §5

SW620 [5] = experiment: Superoxide anion level, DHE probe; details: compound at IC50, 24 h, vs control
Description: as §4, §5

Caco-2 [6] = experiment: Intracellular GSH level, monochlorobimane (MCB) probe; details: compound at IC50, 24 h, vs control
Description: The spectrofluorimetric method with monochlorobimane (MCB; Sigma-Aldrich; St. Louis, MO, USA) was used to determine GSH. Monochlorobimane reacts with glutathione in a reaction catalyzed by cellular glutathione S-transferase. The reaction produces a fluorescent bimane-glutathione conjugate (GSH-MCB). A major advantage of MCB is its ability to penetrate the cell membrane, which is why it is used as a probe to determine the amount of GSH in living cells.
Cells were seeded in black 96-well fluorometric microplates at a density of 10 × 10^3 cells/mL. […] Following compound incubation, the medium was removed, and the cell monolayers were washed twice with HBSS (140 mM NaCl, 5 mM KCl, 0.8 mM MgCl2, 1.8 mM CaCl2, 1 mM Na2HPO4, 10 mM HEPES, and 1% glucose). A solution of MCB at a final concentration of 40 μM was added to each well and incubated in a CO2 cell culture incubator at 37 °C for 20 min. A 40 mM MCB stock solution was prepared by dissolving 9 mg of the reagent in 1 mL of absolute ethanol. Fluorescence was measured using a Perkin-Elmer LS-5B spectrofluorometer (Waltham, MA, USA) at the following excitation and fluorescence emission wavelengths: λex = 380 nm/λem = 470 nm. After incubation with MCB, the cells were lysed with 50 μL of lysis buffer (10 mM TRIS-HCl; pH 8 containing 0.1% Triton X-100). In order to normalize the number of cells in individual samples, the amount of DNA was determined by adding 50 μL of ethidium bromide (EB, final concentration 0.2 mM) to each well after measuring the MCB fluorescence and measuring the EB fluorescence at an excitation wavelength of λex = 530 nm and an emission wavelength of λem = 590 nm. The results obtained using the standard curve were converted to nM of GSH.

SW620 [7] = experiment: MTT test after pre-incubation with antioxidants NAC or Trolox; details: vs cells without antioxidant pre-incubation
Description: Moreover, the elevation of ROS levels was accompanied by a decrease in intracellular GSH. To investigate the role of ROS in the cytotoxic activity of flavonoid derivatives against cancer cells, LoVo cancer cells were pre-treated with antioxidants, NAC or a water-soluble derivative of vitamin E (Trolox), for 1 h before exposure to the studied compounds. Subsequently, the MTT assay was performed.
To elucidate the involvement of ROS in the cytotoxic effects of the investigated compounds, cells were pre-treated with the vitamin E (Trolox, Sigma-Aldrich, St. Louis, MO, USA) or N-Acetylcysteine (NAC) antioxidants for 1 h. Cells were seeded into sterile, colorless 96-well microplates at a density of 6–8 × 10^3 cells/mL, contingent upon the cell line. Following a 24 h culture period, Trolox or NAC was added at a final concentration of 50 μM and 3 mM, respectively. After 1 h of incubation, the antioxidants were removed by washing, and test compounds were administered at appropriate concentrations (10–200 μM) in fresh cell culture medium, followed by a 24 h incubation. The MTT assay was then conducted under identical experimental conditions, as detailed in Section 2.2.

Row | SMILES | Decrease in ΔΨm (depolarization) (Caco-2 [1]) | Change in mitochondrial membrane potential ΔΨm (HCT 116 [2]) | Decrease in ΔΨm (depolarization) (LoVo) | Increase in O2−• (superoxide anion) levels (Caco-2 [3]) | Increase in O2−• (superoxide anion) levels (HCT 116 [4]) | Increase in O2−• (superoxide anion) levels (SW620 [5]) | Decrease in GSH levels (Caco-2 [6]) | Change of the IC50 value after pre-incubation with Trolox (SW620 [7])
1 | O=C1/C(=C/c2ccccc2)COc2ccccc21 [Compound 1] | ~ 30% | no statistically significant changes | ~ 20% | 30% | 10–15% | 10–15% | 25–30% | –
2 | O=C1/C(=C/c2ccccc2)C(c2ccccc2)Oc2ccccc21 (centres unmarked) [Compound 5] | – | – | – | – | – | – | – | Statistically significant increases in the IC50 value
